ChEMBL document CHEMBL5291721, “A preclinical secondary pharmacology resource illuminates target-adverse drug reaction associations of marketed drugs” (Nat Commun, 2023)

What was measured:
[1] = target: cGMP-inhibited 3',5'-cyclic phosphodiesterase 3A (Homo sapiens, UniProt Q14432); assay type: functional
Thromboxane A2 receptor [2] = target: T1, Thromboxane A2 receptor (Homo sapiens, UniProt P21731); assay type: functional, cell-based
T1 sequence (P21731 whole entry): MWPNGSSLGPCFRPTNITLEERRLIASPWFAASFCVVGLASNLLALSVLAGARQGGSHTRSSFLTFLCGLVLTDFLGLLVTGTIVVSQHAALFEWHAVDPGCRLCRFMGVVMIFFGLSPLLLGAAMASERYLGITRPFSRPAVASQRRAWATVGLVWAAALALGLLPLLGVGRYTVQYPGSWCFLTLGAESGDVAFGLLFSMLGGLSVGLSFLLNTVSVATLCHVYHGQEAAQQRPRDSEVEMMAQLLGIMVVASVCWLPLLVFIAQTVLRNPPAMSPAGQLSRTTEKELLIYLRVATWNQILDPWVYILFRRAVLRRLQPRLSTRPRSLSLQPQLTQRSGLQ

[3] = target: Voltage-gated inwardly rectifying potassium channel KCNH2 (Homo sapiens, UniProt Q12809); assay type: functional; settings: read-out: AC50
Prothrombin = Prothrombin (Homo sapiens, UniProt P00734); assay type: functional
[4] = target: T2, Alpha-2A adrenergic receptor (Homo sapiens, UniProt P08913)
T2 sequence (P08913 whole entry): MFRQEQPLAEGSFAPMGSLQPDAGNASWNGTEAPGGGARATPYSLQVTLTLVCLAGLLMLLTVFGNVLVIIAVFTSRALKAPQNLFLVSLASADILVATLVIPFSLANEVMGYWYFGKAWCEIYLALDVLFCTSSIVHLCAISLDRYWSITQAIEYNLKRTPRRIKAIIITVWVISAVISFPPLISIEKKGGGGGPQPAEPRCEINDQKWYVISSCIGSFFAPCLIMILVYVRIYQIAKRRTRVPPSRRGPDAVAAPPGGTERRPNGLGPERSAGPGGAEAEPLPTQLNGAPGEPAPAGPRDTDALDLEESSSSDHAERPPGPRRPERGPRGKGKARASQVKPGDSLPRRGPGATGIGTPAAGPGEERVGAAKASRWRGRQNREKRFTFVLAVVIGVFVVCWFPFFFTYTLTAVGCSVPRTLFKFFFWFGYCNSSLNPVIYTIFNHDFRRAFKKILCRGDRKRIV

[5] = target: T3, Alpha-1A adrenergic receptor (Homo sapiens, UniProt P35348); assay type: functional, cell-based
T3 sequence (P35348 whole entry): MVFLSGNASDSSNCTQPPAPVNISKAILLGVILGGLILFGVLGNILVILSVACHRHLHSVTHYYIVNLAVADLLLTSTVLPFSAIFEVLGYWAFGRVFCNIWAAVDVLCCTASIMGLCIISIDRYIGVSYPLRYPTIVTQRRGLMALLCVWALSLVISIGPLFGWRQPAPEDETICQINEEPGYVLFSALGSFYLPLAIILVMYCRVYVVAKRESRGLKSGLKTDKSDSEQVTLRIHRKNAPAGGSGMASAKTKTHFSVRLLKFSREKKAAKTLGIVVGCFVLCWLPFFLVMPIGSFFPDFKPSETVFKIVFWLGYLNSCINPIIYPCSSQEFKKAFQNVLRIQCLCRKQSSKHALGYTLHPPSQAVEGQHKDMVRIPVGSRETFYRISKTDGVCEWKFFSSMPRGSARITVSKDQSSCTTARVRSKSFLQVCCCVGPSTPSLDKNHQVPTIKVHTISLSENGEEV

Acetylcholinesterase = Acetylcholinesterase (Homo sapiens, UniProt P22303); assay type: functional
Progesterone receptor = target: T4, Progesterone receptor (Homo sapiens, UniProt P06401)
T4 sequence (P06401 whole entry): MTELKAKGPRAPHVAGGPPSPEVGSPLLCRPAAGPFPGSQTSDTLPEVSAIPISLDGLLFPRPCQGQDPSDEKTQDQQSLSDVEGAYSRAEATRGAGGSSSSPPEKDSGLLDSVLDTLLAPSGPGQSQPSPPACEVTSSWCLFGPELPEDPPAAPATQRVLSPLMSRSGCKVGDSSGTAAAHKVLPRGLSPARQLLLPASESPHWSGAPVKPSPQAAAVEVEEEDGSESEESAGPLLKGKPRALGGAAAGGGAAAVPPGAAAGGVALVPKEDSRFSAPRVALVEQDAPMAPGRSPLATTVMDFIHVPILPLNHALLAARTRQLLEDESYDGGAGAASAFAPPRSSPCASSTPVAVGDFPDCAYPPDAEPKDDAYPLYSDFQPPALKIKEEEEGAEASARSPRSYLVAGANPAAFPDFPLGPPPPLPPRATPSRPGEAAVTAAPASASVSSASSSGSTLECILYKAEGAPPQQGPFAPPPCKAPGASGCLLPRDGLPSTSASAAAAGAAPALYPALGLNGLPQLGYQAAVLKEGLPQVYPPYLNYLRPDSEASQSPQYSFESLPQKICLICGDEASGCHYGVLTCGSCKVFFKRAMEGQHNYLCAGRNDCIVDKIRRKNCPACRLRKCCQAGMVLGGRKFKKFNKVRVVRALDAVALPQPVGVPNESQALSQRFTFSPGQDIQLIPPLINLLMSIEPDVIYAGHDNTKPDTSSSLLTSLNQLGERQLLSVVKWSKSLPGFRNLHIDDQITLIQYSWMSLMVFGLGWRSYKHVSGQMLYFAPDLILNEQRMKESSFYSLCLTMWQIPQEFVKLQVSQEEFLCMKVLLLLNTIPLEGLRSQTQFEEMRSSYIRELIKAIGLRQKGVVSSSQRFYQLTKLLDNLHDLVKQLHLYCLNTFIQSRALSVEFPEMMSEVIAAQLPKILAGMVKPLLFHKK

D(1A) dopamine receptor = D(1A) dopamine receptor (Homo sapiens, UniProt P21728)
[6] = target: Sodium-dependent dopamine transporter (Homo sapiens, UniProt Q01959)
D(3) dopamine receptor = D(3) dopamine receptor (Homo sapiens, UniProt P35462)
Thromboxane A2 receptor [7] = target: T1, Thromboxane A2 receptor; assay type: functional, cell-based; remark: listed apart in the source
Note: assay procedure not described here.

cGMP-inhibited 3',5'-cyclic phosphodiesterase 3A, sequence (Q14432 whole entry): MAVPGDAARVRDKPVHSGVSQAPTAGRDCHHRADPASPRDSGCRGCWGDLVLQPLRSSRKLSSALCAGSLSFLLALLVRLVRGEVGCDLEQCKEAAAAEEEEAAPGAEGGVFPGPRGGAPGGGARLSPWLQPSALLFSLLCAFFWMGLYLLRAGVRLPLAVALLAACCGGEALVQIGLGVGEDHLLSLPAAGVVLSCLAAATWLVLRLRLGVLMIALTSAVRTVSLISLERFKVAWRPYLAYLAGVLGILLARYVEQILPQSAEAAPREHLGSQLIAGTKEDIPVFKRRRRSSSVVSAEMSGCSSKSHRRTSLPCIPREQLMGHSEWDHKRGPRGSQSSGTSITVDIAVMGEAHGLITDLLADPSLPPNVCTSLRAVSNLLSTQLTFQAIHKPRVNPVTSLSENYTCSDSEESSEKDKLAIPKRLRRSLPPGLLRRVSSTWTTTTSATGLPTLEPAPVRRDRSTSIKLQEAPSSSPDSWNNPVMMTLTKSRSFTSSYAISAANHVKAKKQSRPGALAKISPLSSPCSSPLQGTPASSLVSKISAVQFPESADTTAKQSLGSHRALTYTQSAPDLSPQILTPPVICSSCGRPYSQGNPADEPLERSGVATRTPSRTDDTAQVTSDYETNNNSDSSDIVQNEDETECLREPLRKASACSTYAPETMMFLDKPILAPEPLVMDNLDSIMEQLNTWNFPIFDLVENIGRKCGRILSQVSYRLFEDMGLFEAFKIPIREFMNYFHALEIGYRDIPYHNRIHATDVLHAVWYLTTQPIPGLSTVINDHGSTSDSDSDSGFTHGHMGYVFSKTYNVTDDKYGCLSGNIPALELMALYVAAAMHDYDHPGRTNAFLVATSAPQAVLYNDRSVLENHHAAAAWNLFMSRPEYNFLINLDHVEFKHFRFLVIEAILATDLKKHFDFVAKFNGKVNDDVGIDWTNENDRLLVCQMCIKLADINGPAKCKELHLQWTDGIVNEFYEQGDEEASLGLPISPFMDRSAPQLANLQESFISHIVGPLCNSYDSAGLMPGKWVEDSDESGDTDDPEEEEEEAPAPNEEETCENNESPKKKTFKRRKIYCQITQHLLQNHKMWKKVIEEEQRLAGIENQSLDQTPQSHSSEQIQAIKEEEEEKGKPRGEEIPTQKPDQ
Voltage-gated inwardly rectifying potassium channel KCNH2, sequence (Q12809 whole entry): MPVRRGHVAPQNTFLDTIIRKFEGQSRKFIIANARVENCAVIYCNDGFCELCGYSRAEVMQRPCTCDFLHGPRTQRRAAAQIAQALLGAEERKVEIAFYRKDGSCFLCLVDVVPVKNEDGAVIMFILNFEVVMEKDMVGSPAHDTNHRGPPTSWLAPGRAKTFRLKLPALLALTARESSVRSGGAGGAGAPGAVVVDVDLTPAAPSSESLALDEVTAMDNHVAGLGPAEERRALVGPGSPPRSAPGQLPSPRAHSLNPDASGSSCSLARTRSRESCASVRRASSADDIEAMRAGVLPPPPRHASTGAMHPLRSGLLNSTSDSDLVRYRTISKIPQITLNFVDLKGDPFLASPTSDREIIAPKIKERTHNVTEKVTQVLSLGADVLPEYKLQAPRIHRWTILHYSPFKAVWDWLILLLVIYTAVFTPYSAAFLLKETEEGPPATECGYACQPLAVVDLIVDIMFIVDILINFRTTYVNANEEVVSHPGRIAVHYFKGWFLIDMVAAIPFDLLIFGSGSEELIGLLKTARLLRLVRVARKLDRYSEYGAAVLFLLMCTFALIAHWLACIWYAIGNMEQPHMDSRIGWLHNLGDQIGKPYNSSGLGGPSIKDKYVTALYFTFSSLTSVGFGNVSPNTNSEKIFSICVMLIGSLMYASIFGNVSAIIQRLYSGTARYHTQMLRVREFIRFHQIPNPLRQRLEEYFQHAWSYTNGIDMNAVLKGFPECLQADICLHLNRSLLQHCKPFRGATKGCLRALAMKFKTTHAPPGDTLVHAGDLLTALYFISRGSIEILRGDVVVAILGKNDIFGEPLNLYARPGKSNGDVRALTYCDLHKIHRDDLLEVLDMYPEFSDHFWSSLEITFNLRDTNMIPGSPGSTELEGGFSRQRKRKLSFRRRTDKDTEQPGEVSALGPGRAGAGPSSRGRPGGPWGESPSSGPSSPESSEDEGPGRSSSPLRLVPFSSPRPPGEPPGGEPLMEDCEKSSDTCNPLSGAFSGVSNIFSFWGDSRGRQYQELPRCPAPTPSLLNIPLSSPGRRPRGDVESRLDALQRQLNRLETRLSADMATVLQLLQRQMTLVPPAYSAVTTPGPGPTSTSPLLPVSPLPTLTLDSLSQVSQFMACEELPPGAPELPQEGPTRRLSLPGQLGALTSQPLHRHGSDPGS
D(3) dopamine receptor, sequence (P35462 whole entry): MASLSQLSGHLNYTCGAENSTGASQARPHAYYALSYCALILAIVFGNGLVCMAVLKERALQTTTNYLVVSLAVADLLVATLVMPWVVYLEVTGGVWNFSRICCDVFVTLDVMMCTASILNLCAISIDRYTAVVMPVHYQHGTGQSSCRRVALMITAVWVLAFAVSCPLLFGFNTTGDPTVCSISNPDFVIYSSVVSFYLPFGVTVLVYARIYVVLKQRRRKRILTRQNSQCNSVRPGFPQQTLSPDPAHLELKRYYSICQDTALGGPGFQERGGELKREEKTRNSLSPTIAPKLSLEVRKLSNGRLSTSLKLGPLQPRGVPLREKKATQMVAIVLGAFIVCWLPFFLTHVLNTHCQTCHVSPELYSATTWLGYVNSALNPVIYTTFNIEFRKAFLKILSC
Sodium-dependent dopamine transporter, sequence (Q01959 whole entry): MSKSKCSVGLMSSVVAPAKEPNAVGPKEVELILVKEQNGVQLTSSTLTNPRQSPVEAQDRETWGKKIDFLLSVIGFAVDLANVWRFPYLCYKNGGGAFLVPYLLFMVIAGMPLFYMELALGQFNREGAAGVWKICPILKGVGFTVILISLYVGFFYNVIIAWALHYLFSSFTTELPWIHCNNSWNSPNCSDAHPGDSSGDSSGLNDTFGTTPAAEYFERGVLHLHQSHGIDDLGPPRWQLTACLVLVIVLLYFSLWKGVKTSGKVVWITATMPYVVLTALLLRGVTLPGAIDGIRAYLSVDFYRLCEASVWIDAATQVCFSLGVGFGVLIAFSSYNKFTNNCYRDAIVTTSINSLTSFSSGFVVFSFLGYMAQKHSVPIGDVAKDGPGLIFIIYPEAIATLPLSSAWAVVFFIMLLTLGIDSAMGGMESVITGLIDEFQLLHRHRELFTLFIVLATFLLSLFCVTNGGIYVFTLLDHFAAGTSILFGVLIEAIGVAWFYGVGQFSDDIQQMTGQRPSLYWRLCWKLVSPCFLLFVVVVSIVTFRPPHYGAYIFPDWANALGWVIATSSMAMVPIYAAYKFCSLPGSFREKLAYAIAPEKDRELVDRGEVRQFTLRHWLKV
Acetylcholinesterase, sequence (P22303 whole entry): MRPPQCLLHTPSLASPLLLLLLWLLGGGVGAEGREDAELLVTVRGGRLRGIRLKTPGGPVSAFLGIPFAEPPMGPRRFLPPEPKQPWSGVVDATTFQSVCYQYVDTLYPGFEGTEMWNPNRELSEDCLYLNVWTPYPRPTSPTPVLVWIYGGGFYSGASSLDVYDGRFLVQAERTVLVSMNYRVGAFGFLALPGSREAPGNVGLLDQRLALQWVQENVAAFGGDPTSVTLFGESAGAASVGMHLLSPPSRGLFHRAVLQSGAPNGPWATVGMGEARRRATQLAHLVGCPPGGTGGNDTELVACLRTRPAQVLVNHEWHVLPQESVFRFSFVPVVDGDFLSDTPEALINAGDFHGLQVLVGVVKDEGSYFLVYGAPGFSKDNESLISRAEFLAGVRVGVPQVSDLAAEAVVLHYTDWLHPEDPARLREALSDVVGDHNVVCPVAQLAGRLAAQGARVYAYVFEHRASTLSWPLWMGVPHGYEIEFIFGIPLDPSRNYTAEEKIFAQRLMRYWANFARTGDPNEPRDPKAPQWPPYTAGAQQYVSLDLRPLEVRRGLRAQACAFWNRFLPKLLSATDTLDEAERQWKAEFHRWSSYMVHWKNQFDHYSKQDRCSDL
D(1A) dopamine receptor, sequence (P21728 whole entry): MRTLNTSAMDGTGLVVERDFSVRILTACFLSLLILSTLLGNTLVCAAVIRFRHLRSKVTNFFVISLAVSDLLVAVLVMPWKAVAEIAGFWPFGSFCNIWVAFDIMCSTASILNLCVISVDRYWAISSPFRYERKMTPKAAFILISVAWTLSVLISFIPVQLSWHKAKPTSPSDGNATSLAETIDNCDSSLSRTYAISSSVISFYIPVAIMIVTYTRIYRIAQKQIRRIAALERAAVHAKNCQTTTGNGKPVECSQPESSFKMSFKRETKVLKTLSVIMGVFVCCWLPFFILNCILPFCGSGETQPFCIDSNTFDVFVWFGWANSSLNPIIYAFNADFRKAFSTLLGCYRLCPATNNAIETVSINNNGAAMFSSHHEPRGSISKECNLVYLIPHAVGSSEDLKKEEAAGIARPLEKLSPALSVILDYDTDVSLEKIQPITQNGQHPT

Compound | AC50 [1] [µM] | AC50 (Thromboxane A2 receptor [2]) [µM] | AC50 [3] [µM] | AC50 (Prothrombin) [µM] | AC50 [4] [µM] | AC50 [5] [µM] | AC50 (Acetylcholinesterase) [µM] | AC50 (Progesterone receptor) [µM] | AC50 (D(1A) dopamine receptor) [µM] | AC50 [6] [µM] | AC50 (D(3) dopamine receptor) [µM] | AC50 (Thromboxane A2 receptor [7]) [µM]
C[C@]1(COc2ccc(N3CCC(Oc4ccc(OC(F)(F)F)cc4)CC3)cc2)Cn2cc([N+](=O)[O-])nc2O1 | > 30 | > 30 | > 30 | > 30 | > 30 | > 30 | > 30 | > 30 | > 30 | > 30 | > 30 | > 30
CC(C1=C(CCN(C)C)Cc2ccccc21)c1ccccn1 (stereo not given) | > 30 | > 30 | 2.7 | > 30 | 15.1 | > 30 | > 30 | > 30 | 6.52 | > 30 | 6.44 | > 30
CC(=O)OC(C)OC(=O)C(C)c1ccc(-c2ccccc2)c(F)c1 (stereo not given) | > 30 | > 30 | > 30 | > 30 | > 30 | > 30 | > 30 | 25.4 | > 30 | > 30 | > 30 | > 30
C[C@H](N)C(=O)O [ALANINE] | > 30 | > 30 | > 30 | > 30 | > 30 | > 30 | > 30 | > 30 | > 30 | > 30 | > 30 | > 30
CNC(=O)C[C@@H](N)C(=O)N[C@@H](C(=O)N[C@@H]1C(=O)N2[C@@H]1SC(C)(C)[C@@H]2C(=O)O)c1ccc(O)cc1 [ASPOXICILLIN] | > 30 | > 30 | – | > 30 | > 30 | > 30 | > 30 | > 30 | > 30 | > 30 | > 30 | > 30
Cc1nnc(SCC2=C(C(=O)O)N3C(=O)[C@@H](NC(=O)Cn4cc(Cl)c(=O)c(Cl)c4)[C@H]3SC2)s1 [CEFAZEDONE] | > 30 | > 30 | – | > 30 | > 30 | > 30 | > 30 | > 30 | > 30 | > 30 | > 30 | > 30
O=C(O)CC(O)(CC(=O)O)C(=O)O [CITRIC ACID] | > 30 | > 30 | – | > 30 | > 30 | > 30 | > 30 | > 30 | > 30 | > 30 | > 30 | > 30
C[C@@H]1C[C@H]2[C@@H]3C[C@H](F)C4=CC(=O)C=C[C@]4(C)[C@@]3(Cl)[C@@H](O)C[C@]2(C)[C@H]1C(=O)COC(=O)C(C)(C)C [CLOCORTOLONE PIVALATE] | > 30 | > 30 | – | > 30 | > 30 | > 30 | > 30 | 0.0118 | > 30 | > 10 | > 30 | > 30
O=P(O)(O)C(Cl)(Cl)P(=O)(O)O [CLODRONIC ACID] | > 30 | > 30 | – | > 30 | > 30 | > 30 | > 30 | > 30 | > 30 | > 30 | > 30 | > 30
Nc1ccncc1 [DALFAMPRIDINE] | > 30 | > 30 | – | > 30 | > 30 | > 30 | > 30 | > 30 | > 30 | > 30 | > 30 | > 30
O=C(CCCN1CC=C(n2c(=O)[nH]c3ccccc32)CC1)c1ccc(F)cc1 [DROPERIDOL] | > 30 | > 30 | – | > 30 | > 30 | > 30 | > 30 | > 30 | > 30 | > 30 | > 30 | > 30
CC(N)CCCC(C)(C)O (stereo not given) [HEPTAMINOL] | > 30 | > 30 | – | > 30 | > 30 | > 30 | > 30 | > 30 | > 30 | > 30 | > 30 | > 30
CC1(C)S[C@@H]2[C@H](NC(=O)[C@H](NC(=O)N3CCN(S(C)(=O)=O)C3=O)c3ccccc3)C(=O)N2[C@H]1C(=O)O [MEZLOCILLIN] | > 30 | > 30 | – | > 30 | > 30 | > 30 | > 30 | > 30 | > 30 | > 30 | > 30 | > 30
CC(c1ccc(Cl)c(Cl)c1)N1N=C(N)CC1=O (stereo not given) [MUZOLIMINE] | > 30 | > 30 | – | > 30 | > 30 | > 30 | > 30 | > 30 | > 30 | > 30 | > 30 | > 30
c1cc(CN2CCCNCCNCCCNCC2)ccc1CN1CCCNCCNCCCNCC1 [PLERIXAFOR] | > 30 | > 30 | – | > 30 | > 30 | > 30 | > 30 | > 30 | > 30 | > 30 | > 30 | > 30
O=C(NC(Cc1cc(=O)[nH]c2ccccc12)C(=O)O)c1ccc(Cl)cc1 (stereo not given) [REBAMIPIDE] | > 30 | > 30 | – | > 30 | > 30 | > 30 | > 30 | > 30 | > 30 | > 30 | > 30 | > 30
